Assay type in all cases: biochemical
One experiment has as its target κ-opioid receptor (Homo sapiens (Human), UniProt P41145). The experiment in a line: κ-opioid receptor [35S]GTPγS functional assay, U-2 OS cells. The settings on record: for Emax: relative to U69,593. The procedure:
Functional [^35S]GTPγS binding assays were conducted as follows. K opioid receptor membrane solution was prepared by sequentially adding final concentrations of 0.026 μg/μl κ membrane protein (in-house), 10 μg/mL saponin, 3 μM GDP and 0.20 nM [^35S]GTPγS to binding buffer (100 mM NaCl, 10 mM MgCl2, 20 mM HEPES, pH 7.4) on ice. The prepared membrane solution (190 μl/well) was transferred to 96-shallow well polypropylene plates containing 10 μl of 20× concentrated stock solutions of agonist prepared in DMSO. Plates were incubated for 30 min at a temperature of about 25° C. with shaking. Reactions were terminated by rapid filtration onto 96-well Unifilter GF/B filter plates (Perkin Elmer, Shelton, Conn.) using a 96-well tissue harvester (Packard) and followed by three filtration washes with 200 μl ice-cold binding buffer (10 mM NaH2PO4, 10 mM Na2HPO4, pH 7.4). Filter plates were subsequently dried at 50° C. for 2-3 hours. Fifty μl/well scintillation cocktail (Perkin Elmer, Shelton, Conn.) was added and plates were counted in a Packard Top-Count for 1 min/well.
κ GTP EC50 is the concentration of a compound providing 50% of the maximal response for the compound at a κ receptor.
κ GTP Emax (%) is the maximal effect elicited by a compound relative to the effect elicited by U69,593.
(§1) In TABLE 5, activity response of certain Compounds of the Invention to the μ- and κ-opioid receptors was determined as described above for functional assays using U-2 OS cells.

Experiment [1] deals with T1, μ-opioid receptor (Homo sapiens (Human), UniProt P35372). The experiment in a line: μ-opioid receptor [35S]GTPγS functional assay, U-2 OS cells. The settings on record: for Emax: relative to DAMGO. The procedure: (§2) [^35S]GTPγS functional assays were conducted using freshly thawed μ-receptor membranes prepared in-house from a cell line expressing recombinant opioid receptor in a HEK-293, CHO or U-2 OS cell background, or purchased from a commercial source (Perkin Elmer, Shelton, Conn.; or DiscovRx, Fremont, Calif.). Assay reactions were prepared by sequentially adding the following reagents to binding buffer (100 mM NaCl, 10 mM MgCl2, 20 mM HEPES, pH 7.4) on ice (final concentrations indicated): membrane protein (0.026 mg/mL), saponin ([…]), GDP ([…]) and [^35S]GTPγS (0.20 nM; Perkin Elmer, Shelton, Conn.). The prepared membrane solution (190 μl/well) was transferred to 96-shallow well polypropylene plates containing 10 μl of 20× concentrated stock solutions of the agonist [D-Ala^2, N-methyl-Phe^4 Gly-ol^5]-enkephalin (DAMGO) prepared in dimethyl sulfoxide (DMSO). Plates were incubated for 30 min at about 25° C. with shaking. Reactions were terminated by rapid filtration onto 96-well Unifilter GF/B filter plates (Perkin Elmer, Shelton, Conn.) using a 96-well tissue harvester (Perkin Elmer, Shelton, Conn.) followed by three filtration washes with 200 μl of ice-cold wash buffer (10 mM NaH2PO4, 10 mM Na2HPO4, pH 7.4). Filter plates were subsequently dried at 50° C. for 2-3 hr. BetaScint scintillation cocktail (Perkin Elmer, Shelton, Conn.) was added (50 μl/well) and plates were counted using a Packard Top-Count for 1 min/well. Data were analyzed using the sigmoidal dose-response curve fitting functions in GraphPad PRISM v. 3.0, or an in-house function for non-linear, sigmoidal dose-response curve-fitting.
(§3) μ GTP EC50 is the concentration of a compound providing 50% of the maximal response for the compound at a μ-opioid receptor.
(§4) μ GTP Emax (%) is the maximal effect elicited by a compound relative to the effect elicited by DAMGO, a standard p agonist. Generally, the μ GTP Emax (%) value measures the efficacy of a compound to treat or prevent pain or other Conditions.
as §1

For experiment [2], the target named is T1, μ-opioid receptor. The experiment in a line: μ-opioid receptor [35S]GTPγS functional assay, HEK-293 or CHO cells. The settings on record: HEK-293 or CHO cells; for EC50: read-out: GTPγS μ EC50; for Emax: relative to DAMGO. On the procedure:
as §2, §3, §4
In TABLE 4, activity response of certain Compounds of the Invention to the μ- and κ-opioid receptors was determined as described above for functional assays using HEK-293 or CHO cells.

Bounds are passed on as bounds.

At κ-opioid receptor, `CN1CC[C@@]2(C)c3cc(O)ccc3C[C@@H]1[C@@H]2N(C)CC(=O)Nc1nc2ccc(F)cc2s1` [Compound 40, N-(6-fluorobenzo[d]thiazol-2-yl)-2-(((2R,6S,11R)-8-hydroxy-3,6-dimethyl-1,2,3,4,5,6-hexahydro-2,6-methanobenzo[d]azocin-11-yl)(methyl)amino)acetamide] yielded an EC50 of 10.9 ± 1.41 µM and an Emax of 45.2 ± 4.82%. On μ-opioid receptor [1], this compound showed an EC50 of 0.539 ± 0.0628 µM and an Emax of 18.7 ± 0.67%.

As to `CN1CC[C@@]2(C)c3cc(O)ccc3C[C@@H]1[C@@H]2N(C)C(=O)CC(=O)Nc1ccc(F)cc1F` [Compound 26, N^1-(2,4-difluorophenyl)-N^3—((2R,6S,11R)-8-hydroxy-3,6-dimethyl-1,2,3,4,5,6-hexahydro-2,6-methanobenzo[d]azocin-11-yl)-N^3-methylmalonamide], the values for the EC50 on κ-opioid receptor, on μ-opioid receptor [2] and at μ-opioid receptor [1] were 0.0543 ± 0.00945 µM, 0.00397 ± 0.00025 µM and 0.00033 ± 2.5e-05 µM, respectively. Besides, the results for the Emax at κ-opioid receptor, on μ-opioid receptor [2] and on μ-opioid receptor [1] were 81.7 ± 10.7%, 76.7 ± 2.73% and 107 ± 3.06%, respectively.

Consider `CN1CC[C@@]2(C)c3cc(C(N)=O)ccc3C[C@@H]1[C@@H]2N(C)C(=O)Nc1ccc(C#N)cc1` [Compound 119, (2R,6S,11R)-11-(3-(4-cyanophenyl)-1-methylureido)-3,6-dimethyl-1,2,3,4,5,6-hexahydro-2,6-methanobenzo[d]azocine-8-carboxamide], for which, at μ-opioid receptor [2], the EC50 amounted to 4.95 ± 0.508 µM and the Emax came out at 43.9 ± 1.88%.

As for `CN(CC1CCN(S(=O)(=O)C2CCCC2)CC1)C1[C@H]2Cc3ccc(O)cc3C1(C)CCN2C` (stereo in doubt) [Compound 60, (2R,6S,11S)-11-(((1-(cyclopentylsulfonyl)piperidin-4-yl)methyl)(methyl)amino)-3,6-dimethyl-1,2,3,4,5,6-hexahydro-2,6-methanobenzo[d]azocin-8-ol], at μ-opioid receptor [2], the EC50 was found to be 0.012 ± 0.00174 µM and the Emax was 22.3 ± 2.34%.

With `CN1CC[C@@]2(C)c3cc(O)ccc3C[C@@H]1[C@H]2NCCCc1ccccc1` [Compound 109, (2R,6S,11S)-3,6-dimethyl-11-((3-phenylpropyl)amino)-1,2,3,4,5,6-hexahydro-2,6-methanobenzo-[d]azocin-8-ol], on μ-opioid receptor [2], the EC50 amounted to 0.649 ± 0.114 µM and the Emax worked out at 59.6 ± 2.5%.

Consider `CN1CCC2(C)c3cc(O)ccc3C[C@@H]1C2NC(=O)Cc1ccsc1` (stereo in doubt) [Compound 31, N-((2R,6S,11S)-8-hydroxy-3,6-dimethyl-1,2,3,4,5,6-hexahydro-2,6-methanobenzo[d]azocin-11-yl)-2-(thiophen-3-yl)acetamide], for which the EC50 at μ-opioid receptor [2] (bound given in uM) is greater than 20 µM. On μ-opioid receptor [2], this compound displayed an Emax of 1%.

For the compound `CN1CC[C@@]2(C)c3cc(O)ccc3C[C@@H]1[C@H]2N(CCO)CCc1ccc(F)cc1` [Compound 77, (2R,6S,11S)-11-((4-fluorophenethyl)(2-hydroxyethyl)amino)-3,6-dimethyl-1,2,3,4,5,6-hexahydro-2,6-methanobenzo[d]azocin-8-ol], at μ-opioid receptor [2], the concentration for a half-maximal effect (EC50) came to 0.00796 ± 0.00069 µM and the Emax is 87 ± 1.73%.

For the compound `CN1CC[C@@]2(C)c3cc(O)ccc3C[C@@H]1[C@@H]2N(CCc1ccc(F)cc1)CC(N)=O` [Compound 74, 2-((4-fluorophenethyl)-((2R,6S,11R)-8-hydroxy-3,6-dimethyl-1,2,3,4,5,6-hexahydro-2,6-methanobenzo[d]azocin-11-yl)amino)acetamide], on μ-opioid receptor [2], the EC50 is 0.00112 ± 0.00017 µM and the Emax turned out to be 83.2 ± 3.47%.

Take `CN1CC[C@@]2(C)c3cc(O)ccc3C[C@@H]1[C@@H]2NC(=O)Nc1ccc(C#N)cc1` [Compound 27, 1-(4-Cyanophenyl)-3-((2R,6S,11R)-8-hydroxy-3,6-dimethyl-1,2,3,4,5,6-hexahydro-2,6-methanobenzo[d]azocin-11-yl)urea]: the EC50 on μ-opioid receptor [2] (bound given in uM) is greater than 20 µM. At μ-opioid receptor [2], this compound had an Emax of 0%.

For the compound `CN1CCC2(C)c3cc(O)ccc3C[C@@H]1C2NC(=O)Cc1ccccc1` (stereo in doubt) [Compound 29, N-((2R,6S,11S)-8-hydroxy-3,6-dimethyl-1,2,3,4,5,6-hexahydro-2,6-methanobenzo[d]azocin-11-yl)-2-phenylacetamide], at μ-opioid receptor [2] (bound given in uM), the EC50 is greater than 20 µM. Besides, the maximal response (Emax) at μ-opioid receptor [2] stood at 1%.

Turning to `CN1CCC2(C)c3cc(O)ccc3C[C@@H]1C2NC(=O)/C=C/c1ccoc1` (stereo in doubt) [Compound 32, (E)-3-(furan-3-yl)-N-((2R,6S,11S)-8-hydroxy-3,6-dimethyl-1,2,3,4,5,6-hexahydro-2,6-methanobenzo[d]azocin-11-yl)acrylamide], the EC50 on μ-opioid receptor [2] (bound given in uM) was greater than 20 µM. This compound yielded an Emax at μ-opioid receptor [2] of 2.33 ± 0.88%.

For `CN1CC[C@@]2(C)c3cc(O)ccc3C[C@@H]1[C@@H]2N(C)C(=O)Nc1nc2ccccc2[nH]1` [Compound 107, 3-(1H-benzo[d]imidazol-2-yl)-1-((2R,6S,11R)-8-hydroxy-3,6-dimethyl-1,2,3,4,5,6-hexahydro-2,6-methanobenzo[d]azocin-11-yl)-1-methylurea], on μ-opioid receptor [2], the EC50 was found to be 0.00681 ± 0.00286 µM and the Emax is 30.6 ± 1.51%.

In the case of `CCN(C(=O)Nc1ccc(C#N)cc1)[C@H]1[C@H]2Cc3ccc(O)cc3[C@]1(C)CCN2C` [Compound 91, 3-(4-cyanophenyl)-1-ethyl-1-((2R,6S,11R)-8-hydroxy-3,6-dimethyl-1,2,3,4,5,6-hexahydro-2,6-methanobenzo[d]azocin-11-yl)urea], at μ-opioid receptor [2], the concentration for a half-maximal effect (EC50) amounted to 0.0463 ± 0.0041 µM and the maximal effect (Emax) was found to be 75.3 ± 2.19%.

Take `CN1CC[C@@]2(C)c3cc(O)ccc3C[C@@H]1[C@@H]2N(C)CC1CCN(C(=O)NC(C)(C)C)CC1` [Compound 95, N-(tert-butyl)-4-((((2R,6S,11R)-8-hydroxy-3,6-dimethyl-1,2,3,4,5,6-hexahydro-2,6-methanobenzo[d]azocin-11-yl)(methyl)amino)methyl)piperidine-1-carboxamide]: at μ-opioid receptor [2], the EC50 is 0.008 ± 0.00164 µM and the Emax was determined as 17.7 ± 2.6%.

With `CCN(CCc1ccc(S(C)(=O)=O)cc1)[C@H]1[C@H]2Cc3ccc(O)cc3[C@]1(C)CCN2C` [Compound 98, (2R,6S,11R)-11-(ethyl(4-(methylsulfonyl)phenethyl)amino)-3,6-dimethyl-1,2,3,4,5,6-hexahydro-2,6-methanobenzo[d]azocin-8-ol], at μ-opioid receptor [2], the EC50 stood at 0.00064 ± 8.2e-05 µM and the Emax is 44.6 ± 0.6%.

Turning to `CN1CC[C@@]2(C)c3cc(O)ccc3C[C@@H]1[C@@H]2N(C)CC1CCN(S(C)(=O)=O)CC1` [Compound 54, (2R,6S,11R)-3,6-dimethyl-11-(methyl((1-(methylsulfonyl)piperidin-4-yl)methyl)amino)-1,2,3,4,5,6-hexahydro-2,6-methanobenzo[d]azocin-8-ol], at μ-opioid receptor [2], the EC50 was found to be 0.00544 ± 0.00235 µM and the Emax turned out to be 74 ± 3.15%.

For `CN1CCC2(C)c3cc(O)ccc3C[C@@H]1C2NS(=O)(=O)Cc1ccccc1` (stereo in doubt) [Compound 101, N-((2R,6S,11S)-8-hydroxy-3,6-dimethyl-1,2,3,4,5,6-hexahydro-2,6-methanobenzo[d]azocin-11-yl)-1-phenylmethanesulfonamide], the half-maximal effective concentration (EC50) on μ-opioid receptor [2] (bound given in uM) is greater than 20 µM. Moreover, the maximum response (Emax) on μ-opioid receptor [2] came to 6 ± 4.06%.

Take `CN1CC[C@@]2(C)c3cc(O)ccc3C[C@@H]1[C@@H]2N(C)C(=O)Cc1ccc(S(C)(=O)=O)cc1` [Compound 28, N-((2R,6S,11R)-8-hydroxy-3,6-dimethyl-1,2,3,4,5,6-hexahydro-2,6-methanobenzo[d]azocin-11-yl)-N-methyl-2-(4-(methylsulfonyl)phenyl)acetamide]: at μ-opioid receptor [2], the EC50 amounted to 0.182 ± 0.012 µM and the Emax amounted to 84.7 ± 1.2%.

The values are drawn from US9975854B2, “Benzomorphan analogs and use thereof” (Purdue Pharma L.P., priority 2014, dated 2018).
